Consider three compounds from US10011814B2, “Salt formulations for the fermentation of marine microorganisms” (Triphase Research and Development I Corp., priority 2006, dated 2018).

The subject of the assay is Salinispora tropica NPS021184. Description: Production of Salinosporamide A and analogs in 42 L fermentor culture; titers by HPLC. The following applies: for decrease of production: Ex.3, chemically defined salt formulation replacing INSTANT OCEAN, with cobalt. The method, then:
Seed cultures were prepared by inoculating frozen stock of Salinispora tropica NPS021184 into seed medium. For 10 mL seed medium in a 50-mL culture tube, one frozen stock (˜1.5 mL) was used for inoculation. For 100 mL seed medium in a 500-mL Erlenmeyer flask, two frozen stocks (˜3 mL total) were used for inoculation.
The first seed cultures (either 10 mL medium in a 50-mL tube or 100 mL medium in a 500-mL Erlenmeyer flask) were incubated at 250 rpm and 28° C. for 3 to 4 days before inoculating (5% inoculum) into second seed medium with the same salt composition as used for the first seed cultures. After incubating at 250 rpm and 28° C. for 2 days, the second seed cultures (5% inoculum) were inoculated into an additional third seed culture (400 mL medium in 2.8 L Fembach flask) with the same medium, salt composition and incubation time as the second seed cultures, before inoculating into production media in the fermentor (26 L medium in a 42 L B. Braun Biostat-C fermentor).
The production medium was then supplemented with either INSTANT OCEAN® commercial salt formulation or a chemically defined salt formulation based on the salt supplement used in the seed stages. The chemically defined salt formulation consisted of: […]
The production medium for fermentation was also supplemented with CoCl2.6H2O at a concentration of 52 μg/L. No CoCl2.6H2O was added to the production medium in control samples.
3.5 mL of the fermentation culture was mixed with equal volume of EtOAc in an extraction tube to extract the various metabolites from the production culture.
The mixture was shaken for 1 hr. An aliquot of the extract (1 mL) was removed and dried under a stream of nitrogen. The dried extract was stored at −20° C. freezer before HPLC analysis. The dried extract was resuspended in 320 μL DMSO and injected into HPLC using the 00TF14 method for analysis.
The production of Salinosporamide A, NPI-0047 and NPI-2065 was monitored by Agilent HP1100 HPLC using an ACE C-18 reversed-phase column (4.6×150 mm), and solvent system consisting of water (0.01% TFA) as solvent A and acetonitrile (0.01% TFA) as solvent B. The elution was started at 100% solvent A for 1 min, 100% solvent A to 35% solvent A gradient in 7 min, held at 35% solvent A for 11 min, 35% solvent A to 100% solvent B in 8 min and held at 100% solvent B for 9 min at a flow rate of 1.5 mL/min with the detector wavelength set at 210 nm and column temperature 35° C.
The first seed culture (100 mL medium) in a 500-mL Erlenmeyer flask was incubated at 250 rpm and 28° C. for 72 hours. 20 mL of the first seed culture was inoculated into second seed culture (400 ml medium) in a 2.8 L Fernbach flask with the same medium as the first seed culture. The second seed culture was incubated at 250 rpm and 28° C. for 48 hours. 200 mL of the […] was inoculated into a B. Braun B-Plus 5 L fermentor containing 4 L third seed medium with the same composition as the first and second seed medium. The thirds seed fermentor culture was incubated at 300 rpm and 28° C. with the airflow rate of 2 L/min for 36 hours. 1.5 L of the third seed culture was inoculated into 26 L production medium in a 42 L B. Braun Biostat-C fermentor.
The production fermentor culture was operated at 200 rpm and 28° C. with the airflow rate of 13 L/min.
3.5 mL of the fermentation culture was mixed with equal volume of EtOAc in an extraction tube to extract the various metabolites from the production culture. The mixture was shaken on the shaker for 1 hr. An aliquot of the extract (1 mL) was removed and dried under a stream of nitrogen. The dried extract was stored at −20° C. freezer before HPLC analysis. The dried extract was resuspended in 320 μL DMSO and injected into HPLC using the 00TF14 method for analysis.
Alternatively, the production of the compounds can be achieved in a 42 L fermentor system using strain NPS21184. […]

Where [1] appears, read: Ex.3, cobalt in seed and production media with INSTANT OCEAN vs no cobalt.

For the compound `CC[C@H]1C(=O)N[C@@]2([C@@H](O)[C@@H]3C=CCCC3)C(=O)O[C@@]12C` [NPI-0047, Salinosporamide B], the decrease of production came to 47.3%. Besides, the “decrease of production, on average” value under setting [1] amounted to 48.1%.

As for `C[C@@]12OC(=O)[C@]1([C@@H](O)[C@@H]1C=CCCC1)NC(=O)[C@H]2CCCl` [NPI-2065], the decrease of production is 7.9%. Further, the “decrease of production, on average” value under setting [1] was found to be 23.2%.

As to `C[C@@]12OC(=O)[C@]1([C@@H](O)[C@@H]1C=CCCC1)NC(=O)[C@@H]2CCCl` [Salinosporamide A], the decrease of production is recorded as 8.7%. In addition, the “increase of production, on average” value under setting [1] was 14.3%.
